Reference: paper PMC7448272, “Acetylation of Surface Carbohydrates in Bacterial Pathogens Requires Coordinated Action of a Two-Domain Membrane-Bound Acyltransferase” (mBio, 2020)

What was measured:
Test in all cases: acetylesterase assay, absorbance at […] nm, plate reader
Type in all cases: biochemical
OafA-STM^C-short = molecular target: T1, OafA-STM^C-short (Salmonella enterica, UniProt Q8ZNJ3); conditions: 10 uM enzyme, 0.5 mM substrate final, 37 C; also acetyl donor for LPS acetylation
T1 construct: periplasmic C-terminal SGNH domain with shortened SGNHext, residues 379-609; N-terminal His-MBP tag (3C-cleavable) removed; expressed in E. coli Origami
T1 sequence (Q8ZNJ3 entry or part of it): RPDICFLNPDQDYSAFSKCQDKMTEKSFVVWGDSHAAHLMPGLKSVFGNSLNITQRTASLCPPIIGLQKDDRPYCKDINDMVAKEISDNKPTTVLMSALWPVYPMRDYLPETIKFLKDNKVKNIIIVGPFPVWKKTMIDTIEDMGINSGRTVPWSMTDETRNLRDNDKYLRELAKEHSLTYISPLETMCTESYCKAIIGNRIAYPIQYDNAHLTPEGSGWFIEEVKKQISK

OafA-STM^C-long = molecular target: T2, OafA-STM^C-long (Salmonella enterica, UniProt Q8ZNJ3); conditions: 10 uM enzyme, 0.5 mM substrate final, 37 C; also acetyl donor for LPS acetylation
T2 construct: periplasmic C-terminal SGNH domain with full SGNHext, residues 366-609; N-terminal His-MBP tag (3C-cleavable) removed; expressed in E. coli Origami
T2 sequence (Q8ZNJ3 entry or part of it): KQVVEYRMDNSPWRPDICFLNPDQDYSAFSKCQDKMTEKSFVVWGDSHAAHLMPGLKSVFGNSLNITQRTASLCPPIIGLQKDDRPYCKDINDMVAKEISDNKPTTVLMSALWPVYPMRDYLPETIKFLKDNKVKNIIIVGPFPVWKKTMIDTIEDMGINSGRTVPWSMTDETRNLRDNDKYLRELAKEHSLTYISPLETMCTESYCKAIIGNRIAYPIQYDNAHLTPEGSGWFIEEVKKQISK

OafB-SPA^C-long = molecular target: T3, OafB-SPA^C-long (Salmonella enterica, UniProt A0A0H2WM30); conditions: 40 uM enzyme (methods print OafB-STM^C-term), 0.5 mM substrate final, 37 C
T3 construct: gene SPA0467; periplasmic C-terminal SGNH domain with full SGNHext, residues 377-640; codon-optimised gene; N-terminal His-MBP tag (3C-cleavable) removed; expressed in E. coli Origami
T3 sequence (A0A0H2WM30 entry or part of it): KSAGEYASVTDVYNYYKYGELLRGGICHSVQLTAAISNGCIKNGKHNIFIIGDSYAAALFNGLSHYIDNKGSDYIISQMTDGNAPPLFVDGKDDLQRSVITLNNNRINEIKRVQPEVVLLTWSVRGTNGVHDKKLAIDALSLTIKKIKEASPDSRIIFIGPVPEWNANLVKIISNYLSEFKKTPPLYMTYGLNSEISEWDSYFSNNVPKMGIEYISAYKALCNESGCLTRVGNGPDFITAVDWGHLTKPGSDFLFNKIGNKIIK

OafB-SPA^C-short = molecular target: T4, OafB-SPA^C-short (Salmonella enterica, UniProt A0A0H2WM30); conditions: 40 uM enzyme (methods print OafB-STM^C-term), 0.5 mM substrate final, 37 C; also acetyl donor for LPS acetylation
T4 construct: gene SPA0467; periplasmic C-terminal SGNH domain with shortened SGNHext, residues 399-640; codon-optimised gene; N-terminal His-MBP tag (3C-cleavable) removed; expressed in E. coli Origami
T4 sequence (A0A0H2WM30 entry or part of it): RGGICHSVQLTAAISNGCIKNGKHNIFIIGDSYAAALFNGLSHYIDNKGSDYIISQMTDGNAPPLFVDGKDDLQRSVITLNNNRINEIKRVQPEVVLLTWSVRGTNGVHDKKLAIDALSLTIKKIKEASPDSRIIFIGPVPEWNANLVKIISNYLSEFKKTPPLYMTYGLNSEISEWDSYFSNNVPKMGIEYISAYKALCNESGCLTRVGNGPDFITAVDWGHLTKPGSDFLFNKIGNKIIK

## CC(=O)Oc1ccc([N+](=O)[O-])cc1 [p-nitrophenyl acetate]
OafA-STM^C-short
  acetylesterase assay, absorbance at 405 nm, plate reader: all constructs via their ability to hydrolyze the ester substrate p-nitrophenyl acetate (pNP-Ac)
OafA-STM^C-long
  acetylesterase assay, absorbance at 405 nm, plate reader: all constructs via their ability to hydrolyze the ester substrate p-nitrophenyl acetate (pNP-Ac)
OafB-SPA^C-long
  acetylesterase assay, absorbance at 405 nm, plate reader: all constructs via their ability to hydrolyze the ester substrate p-nitrophenyl acetate (pNP-Ac)
OafB-SPA^C-short
  acetylesterase assay, absorbance at 405 nm, plate reader: all constructs via their ability to hydrolyze the ester substrate p-nitrophenyl acetate (pNP-Ac)
